Experimental data from patent publication US20170050957A1, “4-AMINO-6-(HETEROCYCLIC)PICOLINATES AND 6-AMINO-2-(HETEROCYCLIC)PYRIMIDINE-4-CARBOXYLATES AND THEIR USE AS HERBICIDES” (Dow AgroSciences LLC, priority 2013, published 2017).
Like-named read-outs stand apart in the source and are kept apart here.

How the values were obtained:
[1] = tested on: Key Grass and Sedge Weeds as well as Grass Crops; test: Post-emergent Test II herbicidal activity (Table 16); format: in vivo; conditions: post-emergence, 336 h; for pest or weed control at 35 g/ha: 35 g ai/ha; for pest or weed control at 70 g/ha: 70 g ai/ha; for pest or weed control at 140 g/ha: 140 g ai/ha
How it was run: (§1)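 Greenhouse-grown seedlings at first/second true leaf receive a track spray at 187 L/ha, using a highest rate plus two-fold serial dilutions down to 1/16×. Watering is by subirrigation to avoid wash-off. Percent injury (0-100) is judged by eye at 14 d against untreated plants.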

[2] = tested on: Key Broadleaf Weed and Crop Species; test: Post-emergent Test II herbicidal activity (Table 15); format: in vivo; conditions: post-emergence, 336 h, 14 d; for pest or weed control at 35 g/ha: 35 g ai/ha; for pest or weed control at 70 g/ha: 70 g ai/ha; for pest or weed control at 140 g/ha: 140 g ai/ha
How it was run: as §1

[3] = Cyperus esculentus, yellow nutsedge (Cyperus esculentus), 14 d, read-out: Visual Growth Reduction (%) 14 Days After Application, CYPES
[4] = Echinochloa crus-galli, barnyardgrass (Echinochloa crus-galli), 14 d, read-out: Visual Growth Reduction (%) 14 Days After Application, ECHCG
[5] = Oryza sativa, rice (Oryza sativa), 14 d, read-out: Visual Growth Reduction (%) 14 Days After Application, ORYSA
[6] = Setaria faberi, giant foxtail (Setaria faberi), 14 d, read-out: Visual Growth Reduction (%) 14 Days After Application, SETFA
[7] = Triticum aestivum, wheat, spring (Triticum aestivum), 14 d, read-out: Visual Growth Reduction (%) 14 Days After Application, TRZAS
[8] = Zea mays, maize, corn (Zea mays), 14 d, read-out: Visual Growth Reduction (%) 14 Days After Application, ZEAMX
[9] = Abutilon theophrasti, velvetleaf (Abutilon theophrasti), read-out: Visual Growth Reduction (%) 14 Days After Application, ABUTH
[10] = Amaranthus retroflexus, redroot pigweed (Amaranthus retroflexus), read-out: Visual Growth Reduction (%) 14 Days After Application, AMARE
[11] = Brassica napus, oilseed rape, canola (Brassica napus), read-out: Visual Growth Reduction (%) 14 Days After Application, BRSNN
[12] = Chenopodium album, lambsquarters (Chenopodium album), read-out: Visual Growth Reduction (%) 14 Days After Application, CHEAL
[13] = Euphorbia heterophylla, wild poinsettia (Euphorbia heterophylla), read-out: Visual Growth Reduction (%) 14 Days After Application, EPHHL
[14] = Helianthus annuus, sunflower (Helianthus annuus), read-out: Visual Growth Reduction (%) 14 Days After Application, HELAN
[15] = Cyperus esculentus, yellow nutsedge (Cyperus esculentus), 14 days after application, read-out: Visual Growth Reduction (%) 14 Days After Application CYPES
[16] = Echinochloa crus-galli, barnyardgrass (Echinochloa crus-galli), 14 days after application, read-out: Visual Growth Reduction (%) 14 Days After Application ECHCG
[17] = Oryza sativa, rice (Oryza sativa), 14 days after application, read-out: Visual Growth Reduction (%) 14 Days After Application ORYSA
[18] = Setaria faberi, giant foxtail (Setaria faberi), 14 days after application, read-out: Visual Growth Reduction (%) 14 Days After Application SETFA
[19] = Triticum aestivum, wheat, spring (Triticum aestivum), 14 days after application, read-out: Visual Growth Reduction (%) 14 Days After Application TRZAS
[20] = Zea mays, maize, corn (Zea mays), 14 days after application, read-out: Visual Growth Reduction (%) 14 Days After Application ZEAMX

COC(=O)c1nc(-c2ccc3sccc3c2)c(C)c(N)c1Cl [Compound 3.06]
45 to 59%: pest or weed control at 35 g/ha [2, 9] | pest or weed control at 140 g/ha [2, 11]
95 to 100%: pest or weed control at 140 g/ha [2, 10] | pest or weed control at 35 g/ha [2, 14] | pest or weed control at 70 g/ha [2, 14] | pest or weed control at 140 g/ha [2, 14]
85 to 94%: pest or weed control at 140 g/ha [2, 9] | pest or weed control at 35 g/ha [2, 10] | pest or weed control at 70 g/ha [2, 10]
155 to 159 °C: melting point
0 to 29%: pest or weed control at 35 g/ha [1, 3] | pest or weed control at 70 g/ha [1, 3] | pest or weed control at 140 g/ha [1, 3] | pest or weed control at 35 g/ha [1, 4] | pest or weed control at 70 g/ha [1, 4] | pest or weed control at 140 g/ha [1, 4] | pest or weed control at 35 g/ha [1, 5] | pest or weed control at 70 g/ha [1, 5] | pest or weed control at 140 g/ha [1, 5] | pest or weed control at 35 g/ha [1, 6] | pest or weed control at 70 g/ha [1, 6] | pest or weed control at 140 g/ha [1, 6] | pest or weed control at 35 g/ha [1, 7] | pest or weed control at 70 g/ha [1, 7] | pest or weed control at 140 g/ha [1, 7] | pest or weed control at 35 g/ha [1, 8] | pest or weed control at 70 g/ha [1, 8] | pest or weed control at 140 g/ha [1, 8] | pest or weed control at 35 g/ha [2, 13] | pest or weed control at 70 g/ha [2, 13]
30 to 44%: pest or weed control at 35 g/ha [2, 11] | pest or weed control at 70 g/ha [2, 11] | pest or weed control at 35 g/ha [2, 12] | pest or weed control at 140 g/ha [2, 13]
60 to 74%: pest or weed control at 70 g/ha [2, 9] | pest or weed control at 70 g/ha [2, 12] | pest or weed control at 140 g/ha [2, 12]

COC(=O)c1nc(-c2cccc3sccc23)c(F)c(N)c1Cl [Compound 3.23]
85 to 94%: pest or weed control at 140 g/ha [2, 12]
219 to 221 °C: melting point
0 to 29%: pest or weed control at 35 g/ha [1, 15] | pest or weed control at 70 g/ha [1, 15] | pest or weed control at 140 g/ha [1, 15] | pest or weed control at 35 g/ha [1, 16] | pest or weed control at 70 g/ha [1, 16] | pest or weed control at 140 g/ha [1, 16] | pest or weed control at 35 g/ha [1, 17] | pest or weed control at 70 g/ha [1, 17] | pest or weed control at 140 g/ha [1, 17] | pest or weed control at 35 g/ha [1, 18] | pest or weed control at 70 g/ha [1, 18] | pest or weed control at 140 g/ha [1, 18] | pest or weed control at 35 g/ha [1, 19] | pest or weed control at 70 g/ha [1, 19] | pest or weed control at 140 g/ha [1, 19] | pest or weed control at 35 g/ha [1, 20] | pest or weed control at 70 g/ha [1, 20] | pest or weed control at 140 g/ha [1, 20] | pest or weed control at 35 g/ha [2, 9] | pest or weed control at 70 g/ha [2, 9] | pest or weed control at 140 g/ha [2, 9] | pest or weed control at 35 g/ha [2, 10] | pest or weed control at 70 g/ha [2, 10] | pest or weed control at 140 g/ha [2, 10] | pest or weed control at 35 g/ha [2, 11] | pest or weed control at 70 g/ha [2, 11] | pest or weed control at 140 g/ha [2, 11] | pest or weed control at 35 g/ha [2, 12] | pest or weed control at 35 g/ha [2, 13] | pest or weed control at 70 g/ha [2, 13] | pest or weed control at 140 g/ha [2, 13] | pest or weed control at 35 g/ha [2, 14] | pest or weed control at 70 g/ha [2, 14] | pest or weed control at 140 g/ha [2, 14]
45 to 59%: pest or weed control at 70 g/ha [2, 12]
